Drawing on US20100331348A1, “TROPANE DERIVATIVES USEFUL AS PESTICIDES” (SYNGENTA CROP PROTECTION, INC., priority 2007, published 2010), this text covers pest or weed control and inhibition of growth for five molecules.

In assay [1] the test system is Heliothis virescens. Put plainly: Heliothis virescens (Tobacco budworm) egg test on artificial diet. Particulars: 96 h, read-out: control of Heliothis virescens.
Assay [2] concerns Spodoptera littoralis. Put plainly: Spodoptera littoralis (Egyptian cotton leafworm) cotton leaf disc test. Particulars: in Gossypium hirsutum, foliar, 72 h, read-out: control of Spodoptera littoralis.
Assay [3] concerns Myzus persicae. The assay is described as follows: Myzus persicae (Green peach aphid) sunflower leaf disc test. The settings on record: foliar, 144 h, read-out: control of Myzus persicae.
The subject of assay [4] is Aedes aegypti. Put plainly: Aedes aegypti (Yellow fever mosquito) larvae test. Format: in vivo. The settings on record: 48 h.
Assay [5] has as its system Septoria tritici. Put plainly: Septoria tritici (leaf blotch) growth inhibition in nutrient broth. Format: cell-based. Particulars: Zymoseptoria tritici, 72 hrs, read-out: control of fungal infection, Septoria tritici.
For assay [6], the system named is Pyricularia oryzae. Put plainly: whole plant or invertebrate. In kind it is in vivo. Particulars: foliar, 96 h.
The test system of assay [7] is Puccinia recondita f.sp. tritici. The assay is described as follows: Puccinia recondita f.sp. tritici (wheat brown rust) leaf disk assay. Format: in vivo. The settings on record: foliar, 216 h, preventive, nine days after inoculation, read-out: control of fungal infection, Puccinia recondita f.sp. tritici.
Assay [8] deals with Tetranychus urticae. Particulars: foliar, 192 h, read-out: control of Tetranychus urticae.
Assay [9] relates to Plasmopara viticola. The assay is described as follows: Plasmopara viticola (downy mildew of grapevine) leaf disk assay. Format: in vivo. Particulars: foliar, 168 h, preventive, seven days after inoculation, read-out: control of fungal infection, Plasmopara viticola.
Assay [10] relates to Plutella xylostella. The assay is described as follows: Plutella xylostella (Diamond back moth) artificial diet test. Particulars: 120 h, read-out: control of Plutella xylostella.
In assay [11] the test system is Erysiphe graminis f.sp. tritici. The assay is described as follows: Erysiphe graminis f.sp. tritici (wheat powdery mildew) leaf disk assay. Format: in vivo. Particulars: Blumeria graminis, foliar, 96 h, preventive, four days after inoculation, read-out: control of fungal infection, Erysiphe graminis fsp. tritici.
For assay [12], the system named is Pythium ultimum. The assay is described as follows: Pythium ultimum (Damping off) growth inhibition in potato dextrose broth. In kind it is cell-based. The settings on record: Globisporangium ultimum, 48 hours, read-out: control of fungal infection, Pythium ultimum.
For assay [13], the system named is Phytophthora infestans. The assay is described as follows: whole plant or invertebrate. In kind it is in vivo. Particulars: foliar, 96 h, read-out: control of fungal infection, Phytophthora infestans.
The mark [14] stands for this setting: read-out: control of fungal infection, Pyricularia oryzae (at least 80% list).
The mark [15] stands for this setting: read-out: control of fungal infection, Pyricularia oryzae (at least 60% list).

Like-named read-outs stand apart in the source and are kept apart here. Where only a bound is given, the exact number is not on record here.

In the case of `CCc1ncnc(N2C3CCC2CC(=CCOc2ccc(C)nc2)C3)c1Cl` [Example 3.14], the pest or weed control at 200 ppm in assay [1], in assay [2], in [3], in [6] (setting [14]), in assay [7] and in assay [8] was at least 80% each time. This molecule gave a pest or weed control at 2 ppm in [4] of at least 80%. Further, in assay [5], the inhibition of growth at 200 ppm is at least 60%.
Consider `Cc1ccc(C=C2CC3CCC(C2)N3c2ncnc3sccc23)cc1` [Example 3.32], for which the pest or weed control at 200 ppm was at least 80% in assay [1]; at least 80% in assay [9]; at least 80% in assay [2]; at least 80% in assay [3]; at least 80% in [10]; at least 60% in [6] (setting [15]). Besides, the pest or weed control at 200 ppm in [6] (setting [14]), in [7] and in [8] was at least 80% in each case. For the same molecule, in assay [4], the pest or weed control at 2 ppm is at least 80%.
As to `CCc1ncnc(N2C3CCC2CC(=NOCc2ccc(F)cc2)C3)c1Cl` [Example 5.30], the pest or weed control at 200 ppm in [1] is at least 80%; in assay [11], at least 80%; in assay [2] it was at least 80%; in assay [3], at least 80%; in assay [10], at least 80%; in [6] (setting [15]), at least 60%. In addition, the pest or weed control at 200 ppm in [7] was at least 80%. Moreover, the pest or weed control at 2 ppm in assay [4] is at least 80%.
`Fc1cccc(F)c1CON=C1CC2CCC(C1)N2c1ncnc2sccc12` [Example 5.215]: the pest or weed control at 200 ppm in assay [9] is at least 80%; in assay [11], at least 80%; in assay [2], at least 80%; in assay [3], at least 80%; in assay [10], at least 80%; in assay [6] (setting [15]), at least 60%. In addition, the pest or weed control at 200 ppm in assay [6] (setting [14]), in [7] and in assay [8] was at least 80% each time. For the same molecule, in assay [4], the pest or weed control at 2 ppm is at least 80%.
On to `Fc1cc(Br)ccc1CON=C1CC2CCC(C1)N2c1ncnc2sccc12` [Example 5.232], for which the pest or weed control at 200 ppm was at least 80% in [11]; at least 80% in assay [2]; at least 80% in assay [3]; at least 80% in assay [10]; at least 60% in assay [6] (setting [15]); at least 80% in assay [13]. In assay [7], the pest or weed control at 200 ppm was at least 80%. In assay [4], this molecule displayed a pest or weed control at 2 ppm of at least 80%. Also, in [12], the inhibition of growth at 200 ppm was at least 60%.
